Laboratory results published in patent US6495594B2, “Biologically active analogs of discodermolide” (Harbor Branch Oceanographic Institution, Inc., priority 2000, dated 2002).

How the values were obtained:
[1] = tested on: A549 human adenocarcinoma; test: In vitro proliferation of A549 cells (MTT); format: cell-based
Method: (§1) Discodermolide and discodermolide analogs were analyzed as to their effects on proliferation of A549 human adenocarcinoma and P388 murine leukemia cell lines. P388 cells were obtained from Dr. R. Camalier, National Cancer Institute, Bethesda, MD, and A549 cells were obtained from American Type Culture Collection, Rockville, MD. All cell lines were maintained in tissue culture medium (TCM; Roswell Park Memorial Institute RPMI 1640 supplemented with 100 U/mL penicillin, […], 60 […], 18 mM HEPES, 0.05 mg/mL gentamicin (Life Technologies, Gaithersburg, MD) and 10% fetal bovine serum) and cultured in plastic tissue culture flasks at 37° C. in humidified air containing 5% CO2. Stock cultures of P388 cells were subcultured 1:20 in fresh TCM every 2 to 3 days. Stock cultures of A549 cells were subcultured 1:10 every 3 to 4 days. To assess the antiproliferative effects of agents against the cells, 200 μL cultures (96-well tissue culture plates, Nunc, Denmark) were established at 1 ×10^5 cells/mL in TCM or TCM containing the test agent at 0.03-5.0 μg/mL. After 48-h exposures, P388 cells were enumerated using 3-[4,5-dimethylthiazol-2-yl]-2,5-diphenyltetrazolium bromide (MTT) as described in the literature (M. C. Alley, et al., Cancer Res. 48:589, 1988). A549 cells were enumerated in the same manner after 72 hours exposure. The results were expressed as percent inhibition compared to the negative (no drug) control. Positive drug controls of varying dilutions of 5-fluorouracil and adriamycin (Sigma Chemical Co., St Louis, MO) were included to monitor drug sensitivity of the cell line.
(§2) To quantitate the effects on cell proliferation and resulting IC50 values, 75 μL of warm growth media containing 5 mg/mL MTT is added to each well, cultures returned to the incubator, and left undisturbed for 3 hours. To spectrophotometrically quantitate formation of reduced formazan, plates are centrifuged (500×g, 10 minutes), culture fluids removed by aspiration, and 200 μL of acidified isopropanol (2 mL concentrated HCl /liter isopropanol) added per well. The absorbance of the resulting solutions is measured in a plate reader (TECAN Spectra SLT; TECAN U.S., Research Triangle Park, N.C.) at 570 nm and a 650 nm reference filter. The absorbance of test wells is divided by the absorbance of drug-free wells, and the concentration of agent that results in 50% of the absorbance of untreated cultures (IC50) is determined by linear regression of logit-transformed data (D. J. Finney, Statistical Method in Biological Assay, third ed., pp. 316-348, Charles Griffin Co., London, 1978). A linear relationship between tumor cell number and formazan production has been routinely observed over the range of cell densities observed in these experiments. The two standard drug controls (indicated above) are included in each assay as a check to monitor the drug sensitivity of each of the cell lines and IC50 values are determined for each drug-cell combination.

[2] = tested on: A549 human adenocarcinoma tumor cells; test: Microtubule bundling patterns in tumor cells by immunofluorescence; format: cell-based; design: key to Microtubule bundling in A549 cells: −: no effect; +/−: minimal or questionable effect; +: weak effect; ++: strong effect; +++: very strong effect equivalent to discodermolide; details: subjective rating versus discodermolide
Method: Discodermolide and discodermolide analogs were evaluated as to their effects on the morphology of the microtubule network of cells using mouse anti-alpha-tubulin monoclonal antibody.
On day one, 7×10^4 adherent A549 human adenocarcinoma tumor cells were cultured in TCM overnight at 37° C. in 5% CO2 on 22 mm^2 cover slips in 6-well microtiter plates. On day two, TCM was removed and replaced with 10-1000 nM discodermolide or analog in TCM or TCM without drug (control) and incubated overnight at 37° C. in 5% CO2. On day three, TCM was removed and cells attached to cover slips were fixed with a 3.7% formaldehyde solution in Dulbecco's PBS for 10 minutes at room temperature. Cells were permeabilized with a 2% Triton X-100 solution, 2 mL per well, for 5 minutes at room temperature and washed twice in Dulbecco's PBS prior to staining.
To each well containing cells attached to cover slips a 2 mL volume of mouse anti- alpha-tubulin monoclonal antibody (Cat# T-5168, Sigma Chemical Co., St. Louis, Mo.) diluted 1:1000 in Dulbecco's phosphate buffered saline (D-PBS) was added and the cells incubated at room temperature for 45 minutes. Cover slips were rinsed once with D-PBS. A 2 mL volume of goat-anti-mouse-IgG-FITC conjugated antibody (Cat# T-5262, Sigma Chemical Co., St. Louis, Mo.) diluted 1:1000 in D-PBS was added and the cells incubated at room temperature for 45 minutes. Cover slips were rinsed once in D-PBS and DNA was stained with 0.02 mg/mL propidium iodide together with 0.1 mg/mL of ribonuclease A (RNAse) A in D-PBS at 37° C. for 30 minutes. Cover slips were rinsed three times with sterile distilled water, air-dried and mounted on slides with SlowFade™ antifade solution (Molecular Probes, Eugene, Oreg.) and observed under the microscope using epifluorescence illumination for the presence of abnormal aster and microtubule bundle formations.

[3] = tested on: purified bovine brain tubulin; test: Tubulin polymerization (optical density at 350 nm); format: biochemical; design: key to Purified tubulin polymerization by 10 μM / Purified tubulin polymerization at 10 μM: −: no effect; +/−: minimal or questionable effect; +: weak effect; ++: strong effect; +++: very strong effect equivalent to discodermolide; details: 10 μM compound, 1 mg/mL tubulin; for Purified tubulin polymerization, temperature at which polymerization commences: temperature ramp 4 to 35° C.; for Purified tubulin polymerization at 10 μM: Table 12
Method: Compounds were tested at 10 μM with 1 mg/mL tubulin. The temperature was varied during the course of the experiment as follows: the experiment was begun with an initial temperature of 4° C. and held for 1 minute; the temperature was then increased to 35° C. at a rate of 1° C./minute, held at 35° C. for 1 minute, decreased to 4° C. at a rate of 2° C/minute, and finally held at 4° C. for 14 minutes. The curves shown are for compounds: discodermolide (I); 2-desmethyldiscodermolide (II); 19-desaminocarbonyldiscodermolide (III); 2-epidiscodermolide (IV); and 3-deoxy-2A-discodermolide (VI).
Compounds were tested at 10 μM with 1 mg/mL tubulin. The temperature was varied during the course of the experiment as follows: the experiment was begun with an initial temperature of 4° C. and held for 1 minute; the temperature was then increased to 35° C. at a rate of 1° C./minute, held at 35° C. for 1 minute, decreased to 4° C. at a rate of 2° C./minute, and finally held at 4° C. for 14 minutes. The curves shown are for discodermolide (I); 8,21,23-hexahydrodiscodermolide (XII) and 7-deoxy-8,21,23-hexahydrodiscodermolide (XIII).
Polymerization of purified bovine brain tubulin (Cytoskeleton Inc., Denver, Colo.) was followed by changes in the optical density of tubulin solutions at 350 nm in a Hitachi U-3010 spectrophotometer equipped with a SPR-10 electronic thermostatted cell holder. Stock solutions of tubulin were diluted on ice in G-PEM buffer (1 mM GTP, 80 mM PIPES, 1 mM EGTA, 0.5 mM magnesium chloride; pH 6.8) to a final concentration of 1 mg/mL. The instrument was zeroed on this solution at 4° C. Discodermolide, and its analogs, were then added to the tubulin solution to a final concentration of 10 μM, quickly mixed, and the absorbance monitored over a period of 61 minutes. Within this time the temperature of the thermoelectric cell holder was held at 4° C. for 1 minute, increased to 35° C. at a rate of 1° C./minute, reduced back to 4° C. at a rate of 2° C./minute, and held at 4° C. for an additional 14 minutes.

[4] = tested on: P388 murine leukemia cell lines; test: In vitro proliferation of P388 cells (MTT); format: cell-based
Method: as §1, §2

[5] = 72 hours exposure, value in parentheses
[6] = 48-h exposure, value in parentheses

Row | Compound | IC50 A549 cells ([1]; 72 hours exposure) [µg/mL] | IC50 [1, 5] [nM] | Microtubule bundling in A549 cells ([2]; Table 12) | Purified tubulin polymerization, temperature at which polymerization commences [3] | Purified tubulin polymerization at 10 μM ([3]; subjective rating) | IC50 P388 cells ([4]; 48-h exposure) [µg/mL] | IC50 [4, 6] [nM] | IC50 ([1]; Homo sapiens, A549, 72 hours exposure) [µg/mL] | IC50 ([1]; Homo sapiens, A549, 72 hours exposure, value in parentheses) [nM] | Microtubule bundling in A549 cells ([2]; Table 11) | Purified tubulin polymerization by 10 μM ([3]; subjective rating, Table 11) | IC50 ([4]; Mus musculus, P388, 48-h exposure) [µg/mL] | IC50 ([4]; Mus musculus, P388, 48-h exposure, value in parentheses) [nM]
1 | C=CC=CC(C)C(OC(N)=O)C(C)C(O)C(C)CC(C)=CC(C)C(O)C(C)C=CC(O)CC1OC(=O)C(C)=CC1C (centres unmarked) [3-Deoxy-2Δ-discodermolide (VI), 3-deoxy-2Δ-discodermolide] | 0.0125 | 21.7 | +++ | 21 °C | + | 0.02 | 33.6 |  |  |  |  |  | 
2 | C=CC=CC(C)C(OC(N)=O)C(C)C(O)C(C)CC(C)=CC(C)C(OC(C)=O)C(C)C=CC(O)CC1OC(=O)C(C)=CC1C (centres unmarked) [3-Deoxy-2Δ-discodermolide-11-acetate (X), 3-deoxy-2Δ-discodermolide-11-acetate] | 1.93 | 3130 | − |  | − | 0.32 | 519 |  |  |  |  |  | 
3 | C=CC=CC(C)C(OC(N)=O)C(C)C(OC(C)=O)C(C)CC(C)=CC(C)C(OC(C)=O)C(C)C=CC(CC1OC(=O)C(C)=CC1C)OC(C)=O (centres unmarked) [3-deoxy-2Δ-discodermolide-7,11,17-triacetate] | >5 | > 7130 | − |  | − | 4.96 | 7080 |  |  |  |  |  | 
4 | C=CC=CC(C)C(OC(N)=O)C(C)C(OC(C)=O)C(C)CC(C)=CC(C)C(OC(C)=O)C(C)C=CC(O)CC1OC(=O)C(C)=CC1C (centres unmarked) [3-deoxy-2Δ-discodermolide-11,17-diacetate] | >5 | > 7590 | − |  | − | >5 | > 7590 |  |  |  |  |  | 
5 | C=CC=CC(C)C(OC(N)=O)C(C)C(OC(C)=O)C(C)CC(C)=CC(C)C(O)C(C)C=CC(O)CC1OC(=O)C(C)=CC1C (centres unmarked) [3-deoxy-2Δ-discodermolide-17-acetate] | >5 | > 8100 | − |  | − | >5 | > 8100 |  |  |  |  |  | 
6 | C=C/C=C\[C@H](C)[C@H](OC(N)=O)[C@@H](C)[C@H](O)[C@@H](C)C/C(C)=C\[C@H](C)[C@@H](O)[C@@H](C)/C=C\[C@@H](O)C[C@@H]1OC(=O)[C@H](C)[C@@H](O)[C@H]1C [Discodermolide (I), discodermolide] |  |  |  | 4 °C |  |  |  | 0.008 | 13.5 | +++ | +++ | 0.021 | 35
7 | Methyldiscodermolate [Methyldiscodermolate (V)] | 0.045 | 74 |  | (12° C.) |  | 0.04 | 65.8 |  |  | + |  |  | 
